How the values were obtained:
[1] = biological target: T1, adenylate cyclase (PTH receptor) in human SaOS-2/B10 cells (Homo sapiens, UniProt Q03431); assay: Adenylate cyclase assay, human osteosarcoma B10 cell line (SaOS-2/B10); type: cell-based; details: mean ± SEM, at least three experiments
T1 construct: endogenous in cells; host or cells: SaOS-2/B10 human osteosarcoma cells
T1 sequence (Q03431 27-593): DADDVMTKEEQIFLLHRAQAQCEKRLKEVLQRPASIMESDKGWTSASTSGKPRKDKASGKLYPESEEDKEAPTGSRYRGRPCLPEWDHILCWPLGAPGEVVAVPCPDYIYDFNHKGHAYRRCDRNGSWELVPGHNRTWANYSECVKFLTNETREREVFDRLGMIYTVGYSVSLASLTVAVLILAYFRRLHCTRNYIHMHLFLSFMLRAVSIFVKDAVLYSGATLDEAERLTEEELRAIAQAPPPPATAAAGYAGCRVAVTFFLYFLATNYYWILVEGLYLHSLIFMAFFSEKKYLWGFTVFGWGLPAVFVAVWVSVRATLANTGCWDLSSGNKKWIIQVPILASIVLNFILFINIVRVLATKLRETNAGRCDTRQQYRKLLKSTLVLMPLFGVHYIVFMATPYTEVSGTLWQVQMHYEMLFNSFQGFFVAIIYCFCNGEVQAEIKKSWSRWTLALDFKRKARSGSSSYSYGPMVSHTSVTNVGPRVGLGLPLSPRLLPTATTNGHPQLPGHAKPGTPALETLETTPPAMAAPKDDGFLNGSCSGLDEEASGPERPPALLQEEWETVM
Protocol: (§1) SaSO-2/B10 cells cultures. The details of maintenance of this cell line in culture were reported previously (see Chorev, M., et al., Intl. J. Peptide & Protein Res. 36, 465-470 (1990)).
(§2) PTH Receptor Binding and Adenylate Cyclase Assays. Kidney-based assays were performed with bovind renal cortical membranes following the procedures previously described (see Goldman, M. E., et al., Endocrinol. 123, 1468-1475 (1988)). Bone-based assays were performed with human SaOS-2/B10 cell cultures. Cyclic AMP was measured using the reported procedure (see Rodan, S. B., et al., J. Clin. Invest. 72, 1511-1515 (1983)), including modifications reported previously (see Chorev. M., et al., Intl. J. Peptide & Protein Res. 36, 465-470 (1990)). Receptor binding affinities for PTHrP analogs were obtained using cells plated in 24-wall dished in RPMI 1640 medium supplemented with 1% BSA, 20 mM HEPES, pH 7.5, and 0.1% azide. [Nle^8,^18, mono-^123 I-Tyr^4 ]bPTH(1-34)NH2 (50,000 cpm/well) was added to confluent monolayers in the absence or presence of varying amounts of analog in a final volume of 0.25 ml. Cultures were incubated at room temperature for 4 hours. Binding reactions were terminated by placing the cultures on ice and washing 4 times with ice cold phosphate buffered saline. Radioactivity associated with the cells was recovered by dissolving the cells in 1 ml of 1N NaOH.
(§3) Data analysis. Inhibition constants for binding (Kb) and adenylate cyclase (Kl) were calculated following a published method (see Cheng, Y. C., et al., Biochem. Pharmacol. 22, 3099-3108 (1973)).

PTH receptor [2] = biological target: T2, PTH receptor (Homo sapiens, UniProt Q03431); assay: PTH receptor binding, human osteosarcoma B10 cell line (SaOS-2/B10); details: inhibiting binding of 95 pM 125I-[Nle8,18,Tyr34]bPTH(1-34)NH2 (footnote a), mean ± SEM, at least three experiments, read-out: Binding Kb
T2 construct: endogenous in cells; host or cells: SaOS-2/B10 human osteosarcoma cells
T2 sequence (Q03431 27-593): T1 sequence (Q03431 27-593)
Protocol: as §1, §2, §3

[3] = biological target: T3, adenylate cyclase (PTH receptor) in bovine renal cortical membranes (Bos taurus, UniProt Q1LZF7); assay: Adenylate cyclase assay, bovine renal cortical membranes; type: biochemical; details: mean ± SEM, at least three experiments
T3 construct: from tissue; host or cells: bovine renal cortical membranes
T3 sequence (Q1LZF7 29-589): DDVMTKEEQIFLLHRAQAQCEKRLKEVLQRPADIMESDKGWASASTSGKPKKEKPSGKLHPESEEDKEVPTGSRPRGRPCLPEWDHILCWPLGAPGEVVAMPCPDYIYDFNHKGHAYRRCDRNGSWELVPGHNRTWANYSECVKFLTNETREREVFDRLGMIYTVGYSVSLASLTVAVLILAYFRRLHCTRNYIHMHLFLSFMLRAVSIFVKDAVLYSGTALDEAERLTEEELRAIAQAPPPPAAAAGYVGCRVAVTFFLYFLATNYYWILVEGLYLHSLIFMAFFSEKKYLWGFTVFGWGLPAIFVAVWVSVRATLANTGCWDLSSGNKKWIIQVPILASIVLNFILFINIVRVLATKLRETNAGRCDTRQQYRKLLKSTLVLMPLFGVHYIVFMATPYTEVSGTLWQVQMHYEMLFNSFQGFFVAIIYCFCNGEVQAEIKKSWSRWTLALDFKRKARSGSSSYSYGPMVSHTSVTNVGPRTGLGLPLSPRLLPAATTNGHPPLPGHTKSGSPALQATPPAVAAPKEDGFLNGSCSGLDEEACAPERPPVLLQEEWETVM
Protocol: as §2, §3

PTH receptor [4] = biological target: T4, PTH receptor (Bos taurus, UniProt Q1LZF7); assay: PTH receptor binding, bovine renal cortical membranes; details: inhibiting binding of 25 nM 125I-[Nle8,18,Tyr34]bPTH(1-34)NH2 (footnote c), mean ± SEM, at least three experiments, read-out: Binding Kb
T4 construct: from tissue; host or cells: bovine renal cortical membranes
T4 sequence (Q1LZF7 29-589): T3 sequence (Q1LZF7 29-589)
Protocol: as §2, §3

| Km [1] [nM] | Ki (PTH receptor [2]) [nM] | Km [3] [nM] | Ki (PTH receptor [4]) [nM] | Ki ([1]; antagonizing 0.25 nM [Nle8,18,Tyr34]bPTH(1-34)NH2 (footnote b)) [nM] | Ki ([3]; antagonizing 3 nM [Nle8,18,Tyr34]bPTH(1-34)NH2 (footnote d)) [nM] | Substance |
| --- | --- | --- | --- | --- | --- | --- |
| 0.5 ± 0.06 | 1.7 ± 0.2 | 6.4 ± 0.7 | 2 ± 0.2 |  |  | [Nle^8,18,Lys^13 (ε-Biotinyl),Tyr^34,Cys^35 (S-2'-(N-succinyl-β-alanyl-3-iodotyramide)]bPTH(1-35)NH2 [analog 3A] |
| 0.5 ± 0.04 | 4.2 ± 0.7 | 36 ± 7 | 14 ± 2 |  |  | [Cys^35 (S-2'-(N-succinyl-β-alanyl-3-iodotyramide)]PTHrP (1-35)NH2 [analog 1A] |
|  | 2.4 ± 0.5 |  | 2 ± 0.1 | 2.8 ± 1 | 22 ± 5 | Ac[Cys^8 (S-2'-(N-succinyl-β-alanyl-3-idotyramide), Leu^11, D-Trp^12 ]-PTHrP(8-34)NH2 [analog 2A] |

Source: patent publication US5242680A, “Thiol-reactive maleimido-based radiolabeling reagents” (Merck & Co., Inc., priority 1991, dated 1993)
